Data set [1] is described as follows: Phase solubility of sertraline with cyclodextrins. It is filed as physicochemical. The following applies: about 25° C., pH not adjusted, higher cyclodextrin concentration (above about 0.08 M). Here is the method: At lower molar concentrations of cyclodextrin (less than about 0.08 M), the phase solubility curve for each cyclodextrin is very similar.
The phase solubility curves for sertraline with SAE-CD, HP-β-CD and γ-CD were determined according to procedures well known in the art (Higuchi et al. in Phase Solubility Techniques, in Advances in Analytical Chemistry and Instrumentation (Ed. C. N. Reilly, John Wiley & Sons Inc., Vol. 4 (1965), pg. 117-212) the relevant disclosure of which is hereby incorporated by reference). The results are depicted in FIG. 1.

Data set [2] can be described thus: Solubility of sertraline HCl versus pH in SBE-β-CD solutions. It is filed as physicochemical. The following applies: 0, 10% or 20% sulfobutylether-β-cyclodextrin (DS=6.7), buffers pH 1, 3, 5, 7.
Protocol: Aqueous 0.01M buffers were prepared at pH values of 1 (HCl), 3 and 5 (citric acid/sodium citrate), and 7 (monobasic potassium phosphate) and used to prepare solutions containing 0, 10% or 20% sulfobutylether-β-cyclodextrin (DS=6.7). Excess sertraline HCl was added to each of the solutions and allowed to mix for three days. The solutions were centrifuged and the supernatants analyzed for sertraline content and final pH.

For “2-hydroxypropyl-β-cyclodextrin [HP-β-CD]”, in data set [1], the “Phase solubility of sertraline with cyclodextrin” value is “outperform the γ-CD”.

Take `CN[C@H]1CC[C@@H](c2ccc(Cl)c(Cl)c2)c2ccccc21` [sertraline, (1S-cis)-4-(3,4-dichlorophenyl)-1,2,3,4-tetrahydro-N-methyl-1-naphthalenamine]: in data set [2], the “Effect of solution pH upon solubility” value is reported as “independent of the pH over the range evaluated”.

As to “Sulfobutyl Ether-β-Cyclodextrin [SBE7-β-CD]”, in data set [1], the “Phase solubility of sertraline with cyclodextrin” value is reported as “outperform the γ-CD”.

These data come from patent US20050250738A1, “Taste-masked formulations containing sertraline and sulfoalkyl ether cyclodextrin” (priority 2004, published 2005).
